Reference: patent publication US7056892B2, “Glucopyranosyloxypyrazole derivatives, medicinal compositions containing the same and intermediates in the production thereof” (Kissei Pharmaceutical Co., Ltd., priority 1999, dated 2006)

Key:
ICR mice [1] = assay: Acute toxicity test, Method B (subcutaneous); format: in vivo; conditions: 600 mg/kg subcutaneous, male ICR mice, 5 animals, observation until 24 hours
Method: By adding of the solvent (saline:polyethylene glycol 400:ethanol=5:4:1) to the test compound, 200 mg/mL suspension was prepared. As experimental animal, male 5 weeks of age ICR mice fasted for 4 hours (Clea Japan, 26–33 g, 5 animals in each group) were used. The test suspension described above was subcutaneously administrated to the experimental animals described above at the dose of 3 mL/kg (600 mg/kg) and then observation was performed until 24 hours after the administration.

SD rats [2] = assay: Assay for the facilitatory effect on urinary glucose excretion, Method B (intravenous); format: in vivo, rat; conditions: oral glucose 2 g/kg, 24 hours, per 200 g of body weight
Method: (§1) Assay for the Facilitatory Effect on Urinary Glucose Excretion
As experimental animal, overnight fasted SD rats (SLC, male, 7 weeks of age, 180–220 g) were used. A test compound (10 mg) was suspended or dissolved in 300 μL of ethanol and dissolved by adding of 1.2 mL of polyethylene glycol 400 and 1.5 mL of saline and then 3.3 mg/mL solution was prepared. A part of this solution was diluted with the solvent (saline:polyethylene glycol 400:ethanol=5:4:1) and then each solution at the concentration of 3.3, 0.33 or 0.033 (mg/mL) was prepared. After the body weights of the rats were measured, the test compound solution was administrated by intravenous injection to the tail vein at the dose of 3 mL/kg (10, 1 and 0.1 mg/kg). For the control, just only the solvent (saline:polyethylene glycol 400:ethanol=5:4:1) was administrated by intravenous injection to the tail vein at the dose of 3 mL/kg. Immediately after this intravenous administration, 200 g/L glucose solution was orally administered at the dose of 10 mL/kg (2 g/kg). The intravenous administration was performed with 26G needle and 1 mL syringe. The oral administration was performed with gastric tube for rat and 2.5 mL syringe. The head count in one group was 3. Collection of urine was performed in metabolic cage after the glucose administration was finished. The sampling time for collection of urine was 24 hours after the glucose administration. After collection of urine was finished, the urine volume was recorded and the urinary glucose concentration was measured. The glucose concentration was measured with a kit for laboratory test: Glucose B-Test WAKO (Wako Pure Chemical Industries, Ltd.). The amount of urinary glucose excretion in 24 hours per 200 g of body weight was calculated from urine volume, urinary glucose concentration and body weight.

ICR mice [3] = assay: Acute toxicity test, Method A (oral); format: in vivo; conditions: 1000 mg/kg oral, male ICR mice, 5 animals, observation until 24 hours
Method: By adding of 0.5% sodium carboxymethylcellulose solution to the test compound, 100 mg/mL suspension was prepared. As experimental animal, male 6–7 weeks of age ICR mice fasted for 4 hours (Clea Japan, 28–33 g, 5 animals in each group) were used. The test suspension described above was orally administrated to the experimental animals described above at the dose of 10 mL/kg (1000 mg/kg) and then observation was performed until 24 hours after the administration.

SD rats [4] = assay: Assay for the facilitatory effect on urinary glucose excretion, Method A (subcutaneous); format: in vivo, rat; conditions: oral glucose 2 g/kg, 4 hours, per 1 body
Method: as §1
As experimental animal, overnight fasted SD rats (SLC, male, 5 weeks of age, 120–150 g) were used. Test compound (25.40 mg) was suspended in 762 μL of ethanol and dissolved by adding of 3.048 mL of polyethylene glycol 400 and 3.81 mL of saline and then 3.3 mg/mL solution was prepared. A part of this solution was diluted with the solvent (saline:polyethylene glycol 400:ethanol=5:4:1) and then each solution at the concentration of 3.3, 1 or 0.33 (mg/mL) was prepared. Each of these solutions was subcutaneously administrated to the rats at the dose of 3 mL/kg (10, 3 and 1 mg/kg). For the control, just only the solvent (saline:polyethylene glycol 400:ethanol=5:4:1) was subcutaneously administrated at the dose of 3 mL/kg. Immediately after this subcutaneous administration, 200 g/L glucose solution was orally administered at the dose of 10 mL/kg (2 g/kg). The subcutaneous administration was performed with 26G needle and 1 mL syringe. The oral administration was performed with gastric tube for rat and 2.5 mL syringe. The head count in one group was 3. Collection of urine was performed in metabolic cage after these administrations were finished. The sampling time for collection of urine was 4 hours after the glucose administration. After collection of urine was finished, the urine volume was recorded and the urinary glucose concentration was measured. The glucose concentration was measured with a kit for laboratory test: Glucose B-Test WAKO (Wako Pure Chemical Industries, Ltd.). The amount of urinary glucose excretion in 4 hours per 1 body was calculated from urine volume and urinary glucose concentration.

normal mice = conditions: J. Med. Chem., Vol. 39, pp. 3920–3928 (1996); cited from earlier work
human SGLT2 = target: T1, human SGLT2 (Homo sapiens, UniProt P31639, I433V); assay: Assay for inhibitory effect on human SGLT2 activity (uptake of methyl-α-D-glucopyranoside in COS-7 cells expressing transiently human SGLT2); format: cell-based
T1 construct: expressed in transfected cells; host or cells: COS-7 cells (RIKEN CELL BANK RCB0539), transient electroporation of plasmid KL29
T1 sequence (P31639 1-672 I433V): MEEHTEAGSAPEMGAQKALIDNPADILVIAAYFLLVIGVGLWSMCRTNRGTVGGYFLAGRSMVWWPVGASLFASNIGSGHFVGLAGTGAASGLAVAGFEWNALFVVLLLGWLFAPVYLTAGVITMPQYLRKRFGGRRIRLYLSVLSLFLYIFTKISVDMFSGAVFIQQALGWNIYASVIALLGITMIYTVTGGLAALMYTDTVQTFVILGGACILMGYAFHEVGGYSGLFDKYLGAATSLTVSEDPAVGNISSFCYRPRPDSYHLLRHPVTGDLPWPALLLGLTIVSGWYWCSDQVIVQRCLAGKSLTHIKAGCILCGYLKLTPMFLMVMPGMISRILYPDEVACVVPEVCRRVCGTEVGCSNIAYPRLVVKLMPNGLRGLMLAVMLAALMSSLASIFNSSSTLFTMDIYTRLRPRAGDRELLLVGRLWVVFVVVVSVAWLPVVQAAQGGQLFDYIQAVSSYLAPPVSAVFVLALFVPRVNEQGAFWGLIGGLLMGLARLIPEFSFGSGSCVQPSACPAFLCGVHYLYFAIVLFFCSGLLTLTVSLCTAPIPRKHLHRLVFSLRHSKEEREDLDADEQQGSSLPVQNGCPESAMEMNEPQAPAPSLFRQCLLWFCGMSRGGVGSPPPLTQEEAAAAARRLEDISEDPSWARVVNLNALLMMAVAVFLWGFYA
Method: Assay for Inhibitory Effect on Human SGLT2 Activity
1) Construction of the Plasmid Vector Expressing Human SGLT2
Preparation of the cDNA library for PCR amplification was performed by reverse transcription of a total RNA deprived from human kidney (Ori gene) with oligo dT as the primer, using Super Script preamplification system (Gibco-BRL: LIFE TECHNOLOGIES). The DNA fragment coding for human SGLT2 was amplified by the PCR reaction, in which the human kidney cDNA library described above was used as the template and the following oligo nucleotides 0702F and 0712R, presented as sequence number 1 and 2 respectively, were used as the primers. The amplified DNA fragment was ligated into pCR (Invitrogen), a vector for cloning, according to standard method of the kit. The Escherichia coli HB101 was transformed according to usual method and then selection of the transformants was performed on the LB agar medium containing 50 μg/mL of kanamycin. […] After plasmid DNA was extracted and purified from this transformant, the base sequence of the DNA fragment inserted at the multi-cloning sites of the vector pcDNA3.1 (−) Myc/His-B was analyzed. […]

Row | Structure (SMILES) | Death number (ICR mice [1]) | Amount of Urinary Glucose Excretion (SD rats [2]; 0.1 mg/kg intravenous) | Amount of Urinary Glucose Excretion (SD rats [2]; 1 mg/kg intravenous) | Amount of Urinary Glucose Excretion (SD rats [2]; 10 mg/kg intravenous) | Death number (ICR mice [3]) | Amount of Urinary Glucose Excretion (SD rats [4]; 1 mg/kg subcutaneous) | Amount of Urinary Glucose Excretion (SD rats [4]; 3 mg/kg subcutaneous) | Amount of Urinary Glucose Excretion (SD rats [4]; 10 mg/kg subcutaneous) | amount of excreted glucose (normal mice) | IC50 (human SGLT2; COS-7 cells expressing transiently human SGLT2, uptake of methyl-α-D-(U-14C)glucopyranoside, 37° C., 2 hours) | inhibitory activity in human SGLT2 (in words) (human SGLT2; assay for inhibitory effect on human SGLT2 activity)
1 | Cc1[nH]nc(O[C@@H]2O[C@H](CO)[C@@H](O)[C@H](O)[C@H]2O)c1Cc1ccc(OC(C)C)cc1 [Example 35, 3-(β-D-Glucopyranosyloxy)-4-[(4-isopropoxyphenyl)methyl]-5-methyl-1H-pyrazole] | 0/5 | 16 mg | 74 mg | 188 mg | – | – | – | – | – | – | –
2 | Cc1[nH]nc(O[C@@H]2O[C@H](CO)[C@@H](O)[C@H](O)[C@H]2O)c1Cc1ccc(C(C)C)cc1 [Example 45, 3-(β-D-Glucopyranosyloxy)-4-[(4-isopropylphenyl)methyl]-5-methyl-1H-pyrazole] | – | 2 mg | 45 mg | 132 mg | 0/5 | 22.1 mg | 83.2 mg | 153.3 mg | – | – | –
3 | CSc1ccc(Cc2c(C(F)(F)F)[nH][nH]c2=O)cc1 [WAY-123783] | – | – | – | – | – | – | – | – | increased | > 100 µM | extremely weak inhibitory activity
